According to US20170027968A1, “ANTI-CANCER AGENT” (KTN BIOTEC, INC., priority 2013, published 2017):

Columns and labels:
[1] = test system: Met5A (human non-malignant mesothelioma cell); assay: Cell viability assay (MTT), Met5A; type: cell-based; settings: Met5A, 1, 10, 100 μM, 24 hr or 48 hr; FIG. 3A
Protocol: (§1) NCI-H28 which is a cell line of human malignant pleural mesothelioma and Met5A which is a cell line of human non-malignant mesothelioma were used. These cells were purchased from American Type Culture Collection (Manassas, Va., USA). The cells were cultured in Roswell Park Memorial Institute (RPMI)-1640 medium added with 0.003% (w/v) L-glutamine. The cells were incubated in a medium added with 10% (v/v) heat-inactivated bovine serum, penicillin (final concentration, 100 U/ml) and streptomycin (final concentration, 0.1 mg/ml) in a humid environment under 5% CO2 and 95% air at 37° C.
(§2) The cell viability was evaluated according to previous report (Nogi Y, et al., Cell Physiol Biochem 2012; 30: 61-74.) by using 3-(4,5-dimethyl-2-thiazolyl)-2,5-diphenyl-2H-tetrazolium bromide (MTT). The measurement was performed by treating Met5A (human non-malignant mesothelioma cell) and NCI-H28 (human malignant mesothelioma cell) for 24 hr or 48 hr while changing the concentration of DPPE to 0, 1 μM, 10 μM and 100 μM.

Human recombinant PP2A = assay: Assay of PP2A activity under cell-free conditions (p-NPP substrate); settings: 100 μM, preincubated 37° C. 30 min, p-NPP 0.5 mM 60 min, FIG. 1A
Source text: (§4) Human recombinant PP2A was purchased from Millipore (Billerica, Mass., USA). Human PTP1B was cloned to pGEX-6P-3 vector having a GST tag on the NH2 terminal, and expressed in competent E. coli 3L21 (DE3) suitable for transformation and protein expression. GST fused PTP1B was affinity-purified using glutathione sepharose 4B (GE Healthcare Bio-Science KK, Tokyo, Japan). They were reacted with p-nitrophenylphosphate (p-NPP) (Sigma, St. Louis, Mo., USA) as a substrate, and each phosphatase activity was measured. PP2A (0.2 U/well) or PTP1B (1 mg/well) was preincubated in a reaction medium at 37° C. for 30 min. in the presence and absence of a phosphatase inhibitor (okadaic acid; 2 nM, sodium vanadate; 1 μM) and, phosphatidylethanolamine (DAPE, DLPE, DOPE, DPPE; 100 μM, all obtained from Avanti Polar Lipids, Inc. (Alabaster, Ala., USA)). • reaction medium for PP2A: 50 mM Tris-HCl, 0.1 mM EGTA, 0.1% (v/v) 2-mercaptoethanol, pH 7.0 • reaction medium for PTP1B: 50 mM HEPES, 1 mM EDTA, 50 mM NaCl, 1 mM dithiothreitol, pH 7.2
(§5) Then, p-NPP (0.5 mM for PP2A, 10 mM for PTP1B) was added to the reaction medium and incubation was continued for 60 min. The reaction was discontinued by adding 0.1N NaOH. Dephosphorylated p-NPP, namely, p-NP, was quantified at absorbance 405 nm by using SpectraMax PLUS384 (Molecular Devices, Sunnyvale, Calif., USA).

[2] = test system: NCI-H28 (human malignant mesothelioma cell); assay: Cell viability assay (MTT), NCI-H28; type: cell-based; settings: NCI-H28, 1, 10, 100 μM, 24 hr or 48 hr; FIG. 3B
Protocol: as §1, §2

Human PTP1B (GST fused) = biological target: T1, Human PTP1B (GST fused) (Homo sapiens, UniProt P18031); assay: Assay of PTP1B activity under cell-free conditions (p-NPP substrate); settings: 100 μM, preincubated 37° C. 30 min, p-NPP 10 mM 60 min, FIG. 1B
T1 sequence (P18031 1-435): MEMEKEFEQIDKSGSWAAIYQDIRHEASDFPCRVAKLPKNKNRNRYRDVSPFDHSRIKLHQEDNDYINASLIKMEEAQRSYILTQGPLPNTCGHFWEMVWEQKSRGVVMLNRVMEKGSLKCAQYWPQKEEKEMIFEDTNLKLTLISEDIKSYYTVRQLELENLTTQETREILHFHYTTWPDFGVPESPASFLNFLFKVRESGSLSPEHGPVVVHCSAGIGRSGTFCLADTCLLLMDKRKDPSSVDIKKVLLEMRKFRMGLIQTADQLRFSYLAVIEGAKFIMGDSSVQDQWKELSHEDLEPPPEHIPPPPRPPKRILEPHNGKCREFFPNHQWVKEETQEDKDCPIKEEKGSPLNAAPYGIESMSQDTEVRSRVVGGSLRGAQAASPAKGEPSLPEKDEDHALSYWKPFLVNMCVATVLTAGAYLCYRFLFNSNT
Source text: as §4, §5

[3] = test system: NCI-H28 (human malignant mesothelioma cell); assay: TUNEL staining, NCI-H28; type: cell-based; settings: NCI-H28, 30 μM and 100 μM, 48 hr; FIG. 4
Protocol: (§3) NCI-H28 which is a cell line of human malignant pleural mesothelioma and […] which is a cell line of human non-malignant mesothelioma were used. These cells were purchased from American Type Culture Collection (Manassas, Va., USA). The cells were cultured in Roswell Park Memorial Institute (RPMI)-1640 medium added with 0.003% (w/v) L-glutamine. The cells were incubated in a medium added with 10% (v/v) heat-inactivated bovine serum, penicillin (final concentration, 100 U/ml) and streptomycin (final concentration, 0.1 mg/ml) in a humid environment under 5% CO2 and 95% air at 37° C. To detect in situ DNA fragmentation to be the index of apoptosis, TUNEL staining was performed using In Situ Apoptosis Detection Kit (Takara Bio; Otsu, Japan). The cells fixed and membrane-permeabilized were incubated with terminal deoxynucleotidyl transferase and fluorescein isothiocyanate (FITC)-deoxyuridinetriphosphate at 37° C. for 90 min. FITC signal was visualized by a confocal laser microscope (LSM 510; Carl Zeiss Co., Ltd., Oberkochen, Germany). The cells used were […] (human non-malignant mesothelioma cell) and NCI-H28 (human malignant mesothelioma cell), after a treatment for 48 hr by changing the concentration of DPPE to 0, 30 μM and 100 μM.

[4] = test system: Met5A (human non-malignant mesothelioma cell); assay: TUNEL staining, Met5A; type: cell-based; settings: 30 μM and 100 μM, 48 hr, FIG. 4
Protocol: as §3

CCCCCC/C=C\CCCCCCCC(=O)OC[C@H](COP(=O)(O)OCCN)OC(=O)CCCCCCC/C=C\CCCCCC [DPPE, 1,2-dipalmitoleoyl-sn-glycero-3-phosphoethanolamine]
cell survival rate (MTT) [1]: almost uninfluential on the non-malignant mesothelioma cell
PP2A activation enhancing action (phosphatase activity relative to control) (Human recombinant PP2A): strong PP2A activation enhancing action
cell survival rate (MTT) [2]: induces concentration-dependent cell death in the malignant mesothelioma cell
PTP1B activation enhancing action (phosphatase activity relative to control) (Human PTP1B (GST fused)): PTP1B activation enhancing action
apoptosis (TUNEL-stained cells relative to total cells) [3]: induces apoptosis of the malignant mesothelioma cell
apoptosis (TUNEL-stained cells relative to total cells) [4]: does not induce apoptosis of the non-malignant mesothelioma cell
